Results: paper PMC3431598, “Phylogenetic and Transcriptomic Analysis of Chemosensory Receptors in a Pair of Divergent Ant Species Reveals Sex-Specific Signatures of Odor Coding” (PLoS Genetics, 2012)

Biological target: T1, HsOrco (with AgOR10) (Harpegnathos saltator, UniProt E2BJ30)
T1 construct: gene Orco; full-length CDS from worker antennal cDNA; cRNA in Xenopus oocytes with mosquito AgOR10; with Odorant receptor 10 (Anopheles gambiae)
T1 sequence (E2BJ30 1-479): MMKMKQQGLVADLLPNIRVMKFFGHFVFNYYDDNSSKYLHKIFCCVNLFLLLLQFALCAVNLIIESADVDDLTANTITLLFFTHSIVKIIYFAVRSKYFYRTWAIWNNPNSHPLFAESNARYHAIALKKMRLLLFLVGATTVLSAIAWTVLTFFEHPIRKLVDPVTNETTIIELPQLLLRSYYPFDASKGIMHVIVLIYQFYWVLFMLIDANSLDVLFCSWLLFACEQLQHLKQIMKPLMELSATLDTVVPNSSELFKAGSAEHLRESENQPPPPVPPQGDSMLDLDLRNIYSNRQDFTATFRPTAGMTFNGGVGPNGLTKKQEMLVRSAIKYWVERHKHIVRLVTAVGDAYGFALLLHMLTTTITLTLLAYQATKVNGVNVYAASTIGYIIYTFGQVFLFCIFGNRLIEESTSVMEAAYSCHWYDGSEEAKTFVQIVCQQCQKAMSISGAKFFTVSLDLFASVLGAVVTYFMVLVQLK
T1 sequence (B5U0U7 1-375 partner): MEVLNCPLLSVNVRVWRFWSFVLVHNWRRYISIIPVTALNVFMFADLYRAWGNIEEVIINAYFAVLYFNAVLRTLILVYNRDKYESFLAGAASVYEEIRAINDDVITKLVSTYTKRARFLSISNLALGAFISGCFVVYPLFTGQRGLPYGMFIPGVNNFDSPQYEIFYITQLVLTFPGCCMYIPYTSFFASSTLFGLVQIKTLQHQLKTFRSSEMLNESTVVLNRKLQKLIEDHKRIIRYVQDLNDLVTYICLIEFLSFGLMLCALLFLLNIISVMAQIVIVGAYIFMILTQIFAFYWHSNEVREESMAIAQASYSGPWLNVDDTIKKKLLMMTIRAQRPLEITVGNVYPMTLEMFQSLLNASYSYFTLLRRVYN
Test: two-electrode voltage clamp, Xenopus oocytes
Type: cell-based
Conditions: Orco agonist; AgOR10 co-expressed; -80 mV

CCc1ccc(NC(=O)CSc2nnc(-c3cccnc3)n2CC)cc1 [VUAA1]
two-electrode voltage clamp, Xenopus oocytes: produced responses to VUAA1 (an agonist for Orco)
